Test [1] concerns HT-22. Description: Neuroprotective activity against glutamate-induced cell death in mouse HT22 cells assessed as increase in cell viability […] after 24 hrs by MTT assay. Format: functional, cell-based.
Test [2] concerns HT-22. Put plainly: Neuroprotective activity against glutamate-induced cell death in mouse HT22 cells assessed as reduction in apoptotic cells at 50 uM after 10 to 12 hrs by Annexin V-alexa 488/propidium iodide staining based flow cytometry. It counts as functional. (In general: Flow cytometry measures light scatter and fluorescence of single cells or particles in a stream.)
Test [3] concerns HT-22. Description: Neuroprotective activity against glutamate-induced apoptosis in mouse HT22 cells assessed as apoptotic cells at 50 uM after 10 to 12 hrs by Annexin V-alexa 488/propidium iodide staining based flow cytometry (reference value: 57%). Format: functional.

The source made the active and inactive calls. The calls are words filed in the database; no cut-off is given here.

For the compound `CC(=O)N[C@@H](CS)C(=O)O` [ACETYLCYSTEINE], the outcome with HT-22 [1] and in the test with HT-22 [2] was Active. The Activity in the test on HT-22 [3] is recorded as 17%.

The record behind these values is ChEMBL document CHEMBL4177681, “Protective effect of casuarinin against glutamate-induced apoptosis in HT22 cells through inhibition of oxidative stress-mediated MAPK phosphorylation” (Bioorg Med Chem Lett, 2017).
